Like-named read-outs stand apart in the source and are kept apart here.
Tests used:
[1] = tested on: Me45 (human malignant melanoma cell line); assay: Determination of EC50 values, MTS assay, Me45; assay type: cell-based; conditions: read-out: EC50 (±SE)
Description: (§1) NHDFs were purchased from Lonza Group Ltd.—Lonza Verviers (Verviers, Belgium), and the human malignant melanoma (Me45) cell line was obtained from the Maria Skłodowska-Curie Memorial Cancer Center and National Institute of Oncology Branch Gliwice, Poland. […] During the culturing periods, cells were passaged before confluency reached 80% in culture flasks and washed regularly with PBS.
(§2) The EC50 values of genistein and its derivatives for both cell lines were determined using the MTS assay (Cell Titer 96 AQueous One Solution Cell Proliferation Assay, Promega, Madison, WI, USA). Cells were seeded in 96-well plates (5 × 10^3 cells/well) and incubated for 24 h at 37 °C in 5% CO2. Subsequently, the cells were treated with twelve concentrations of each compound ranging from 1–100 µM for 48 h at 37 °C in 5% CO2. Afterwards, the medium, including the investigated compounds, was removed from all wells and replaced with PBS. In total, 20 µL of MTS was added to each well. Plates were then incubated for 2 h at 37 °C in 5% CO2. The absorbance was measured at λ = 490 nm using an Epoch microplate reader (BioTek, Winooski, VT, USA). EC50 values were calculated using Matlab software (Matlab R2022a, MathWorks, Natick, MA, USA).

[2] = tested on: NHDF (normal human dermal fibroblasts); assay: Determination of EC50 values, MTS assay, NHDF; assay type: cell-based; conditions: read-out: EC50 (±SE)
Description: as §1, §2

Lipophilicity (Log P) = assay type: physicochemical
From the text: Table 2 Genistein and its derivatives investigated in the study. | column: Log P

NHDFs [3] = assay: Cell cycle analysis (flow cytometry, PI), NHDF; assay type: cell-based, human; conditions: 5 µM, 48 h, not exposed to UV
Description: (§3) Cells from both cell lines were seeded in 12-well plates (2.5 × 10^4 cells/well) and incubated for 24 h at 37 °C in 5% CO2. The medium in the wells was replaced with fresh DMEM. Cells were treated with 5 µM of genistein, 4′-L-Gen, W5-Gen, or WBn-Gen for 48 h. Medium containing the test substances was removed, and the cells were collected by trypsinization (followed by neutralization of trypsin with medium) in Eppendorf tubes. Tubes were centrifuged (2000 rpm, 3 min), and the supernatant was removed. Subsequently, the fixation of cells in frozen 96% ethanol took place. The ethanol was removed, and cells were washed twice in PBS. Cells were suspended in tubes using 50 µL of […] RNase and then incubated for 15 min at room temperature. Cells were stained with […] propidium iodide solution in PBS and incubated for 20 min at room temperature. Directly before flow cytometry analysis, cells were agitated on a vortex mixer. Cell cycle analysis was performed using a BD FACS Canto flow cytometer, which counted 10,000 cells from every probe. The number of cells in each cell cycle phase was counted by measuring the […] intensity using Diva software (Bd FACSDiva v9.0, Becton Dickinson, Franklin Lakes, NJ, USA).

NHDFs [4] = assay: Genotoxicity, micronucleus (MN) assay, NHDF; assay type: cell-based, human; conditions: 48 h, 5 µM
Description: (§4) Both cell types were seeded in 6-well plates (2.5 × 10^4 cells/well) and incubated for 24 h at 37 °C in 5% CO2. After incubation, the medium in the wells was changed to 5 µM solutions of genistein, 4′-L-Gen, W-Bn-Gen, or W5-Gen in DMEM and incubated for 1 h at 37 °C in 5% CO2. Half of the treated cells were irradiated, as described above. Afterwards, all the cells were treated with […] cytochalasin B and incubated for 48 h at 37 °C in 5% CO2. Subsequently, cells from each well were trypsinized, washed twice in PBS, and mixed with frosted (−20 °C) Carnoy’s solution (methanol: acetic acid, v/v 3:1). After 2 h, 50 µL of each suspension was placed on a microscopic slide and dried. Before microscopic analysis, slides were stained with 2 µg/mL DAPI (dissolved in DMSO) and covered with cover glasses. Slides were observed using a fluorescent microscope (Zeiss Axio Imager. M1 with EC Plan- NEOFLUAR 40× objective, Zeiss, Oberkochen, Germany). A total of 500 cells on each slide were counted, taking into account binucleated, binucleated with MN, mononucleated, and apoptotic cells. The NDI was calculated using a modified method by Eastmond and Tucker (1989) according to the following Equation (2):(2) NDI=MNu+2(Bnu+BNuMN)/∑cells where MNu is the number of cells with one nucleus, BNu is the number of binucleated cells, and BNuMN is the number of binucleated cells with MN.

Me45 cells [5] = assay: Genotoxicity, micronucleus (MN) assay, Me45; assay type: cell-based, human; conditions: 5 µM, 48 h, exposed and not exposed to UV radiation
Description: as §4

[6] = Protective potential against UV irradiation, MTS assay, Me45; assay type: cell-based; conditions: human
Description: Cells from each cell line were seeded in three groups (0, 24, and 48 h) in 96-well plates (5 × 10^3 cells/well) and incubated for 24 h at 37 °C in 5% CO2. Afterwards, the medium in all wells was removed, and cells were treated with 5 µM of genistein, 4′-L-Gen, W-Bn-Gen, or W5-Gen. The chemicals added to the 0 h time point plates were dissolved in PBS. DMEM was used to prepare the chemical solutions for the 24- and 48-h plates.
After incubation, half of the wells on each plate were irradiated with UVC 2 kJ/m^2 in a Crosslinker CL-1000 UV (UVP) device (Ultra-Violet Products Ltd., Cambridge, UK). The MTS assay was performed immediately after irradiation for 0 h plates and after 24 and 48 h of incubation for the other two time points. Before conducting the MTS test, the medium in the 24 and 48 h plates was discarded and replaced with PBS.

[7] = tested on: estrogen receptors ERα and ERβ; conditions: cited from earlier work
Me45 cells [8] = assay: Cell cycle analysis (flow cytometry, PI), Me45; assay type: cell-based, human; conditions: 5 µM, 48 h, not exposed to UV
Description: as §3

[9] = Me45, 48 h treatment, 1–100 µM, concentration causing 50% toxicity
[10] = 48 h treatment, 1–100 µM, concentration causing 50% toxicity

logP (Lipophilicity (Log P))	Structure (SMILES)	EC50 [1, 9] [µM]	EC50 [2, 10] [µM]	suppression of the cell cycle in the G2/M phase, cells compared to the controls (NHDFs [3]) [%]	DNA damage (percentage of binucleated cells with MN) (NHDFs [4]; human)	effect on number of cells with MN (in words) (Me45 cells [5])	mortality at 0 h, 5 µM ([6]; Me45, 5 µM, shortest incubation (first time point, before the 24 h reading), read-out: mortality compared to control untreated cells) [%]	EC50 ([1]; 48 h) [µM]	binding to ERβ versus ERα, times more strongly [7]	EC50 ([2]; 48 h) [µM]	logP (Lipophilicity (Log P); method not stated, read-out: Log P)	suppression of the G1 phase, ranking (in words) (Me45 cells [8])	effect on number of cells with MN (in words) (NHDFs [4]; NHDF)	mortality at 0 h, 5 µM [6] [%]	viability at 48 h, 5 µM ([6]; Me45, 5 µM, after 48 h, both exposed and not exposed to UV radiation, read-out: viability of treated cells much lower than in the control samples) [%]
4.04	O=C(OCc1ccccc1)Oc1cc(O)c2c(=O)c(-c3ccc(O)cc3)coc2c1 [WBn-Gen, bezyl-7-O-genistein carbonate]	71.2	6	6	10.5–11%										
	O=c1c(-c2ccc(O)cc2)coc2cc(O)cc(O)c12 [Gen, Genistein]					increases the number of cells with MN	50	78.2	20–30 times	8.6	1.74	strongest effect	decreased the number of cells with MN		
3.96	CCCCCOC(=O)Oc1cc(O)c2c(=O)c(-c3ccc(O)cc3)coc2c1 [Compound W5-Gen, n-pentyl-7-O-genistein carbonate]	92.2	5.6												

Structure (SMILES)	logP (Lipophilicity (Log P))	EC50 [1, 9] [µM]	EC50 [2, 10] [µM]	suppression of the cell cycle in the G2/M phase, cells compared to the controls (NHDFs [3]) [%]	DNA damage (percentage of binucleated cells with MN) (NHDFs [4]; human)	effect on number of cells with MN (in words) (Me45 cells [5])	mortality at 0 h, 5 µM ([6]; Me45, 5 µM, shortest incubation (first time point, before the 24 h reading), read-out: mortality compared to control untreated cells) [%]	EC50 ([1]; 48 h) [µM]	binding to ERβ versus ERα, times more strongly [7]	EC50 ([2]; 48 h) [µM]	logP (Lipophilicity (Log P); method not stated, read-out: Log P)	suppression of the G1 phase, ranking (in words) (Me45 cells [8])	effect on number of cells with MN (in words) (NHDFs [4]; NHDF)	mortality at 0 h, 5 µM [6] [%]	viability at 48 h, 5 µM ([6]; Me45, 5 µM, after 48 h, both exposed and not exposed to UV radiation, read-out: viability of treated cells much lower than in the control samples) [%]
CCCCCCCCCCCC(=O)Oc1ccc(-c2coc3cc(O)cc(O)c3c2=O)cc1 [4′-L-Gen, 4′-genistein dodecanate]	5.71							60.5		6.5		weakest effect		~10	~50
